In patent US20260014194A1, “COMBINATIONS COMPRISING METAP2 INHIBITORS FOR THE TREATMENT OF CANCER” (SynDevRx, Inc., priority 2022, published 2026):

Assays:
MCF-7 cells = experiment: MCF-7 mammary fat pad tumor model: tumor volume and tumor growth inhibition; assay type: in vivo, NU/j mice; details: inavolisib 25 mg/kg PO QD
Protocol: (§1) Animals: Female NU/j mice, 6 weeks of age upon delivery, were received and acclimated at 5 mice per cage for a minimum of 7 days. Mice were housed in autoclaved caging with autoclaved water throughout the course of the study. The animals had free access to food (irradiated chow 2920X) and water. The animals were housed in a temperature and humidity-controlled room with a 12-hour light cycle.
Cell Culture: MCF-7 cells were cultured in Dulbecco's Modified Eagle Medium (DMEM) with 10% FBS.
Tumor Cell Implantation: On the day of implantation, cells were washed 1× with phosphate-buffered saline (PBS). Following washing, cells were pelleted (5 min @1000 rpm, RT) and then counted with a hemocytometer. A cell concentration of 5×10^6 per mouse was re-suspended in an appropriate amount of PBS and 1:1 Matrigel (kept on ice until implantation). Forty-eight hours prior to cell implantation, a 17-β estradiol pellet (0.36 mg 60-day slow release pellet) was implanted subcutaneously between the scapulae of each mouse. […]
Tumor Assessment: prior to cell implantation, all animals were ear tagged. Beginning 5 days post cell implantation, tumors were measured two times weekly (length×width) using a wireless Mitutoyo UWAVE-T digital calipers in conjunction with UWAVE-R to record measurements. […] Randomization was determined by tumor volume of all of the mice. […]

[1] = Body weight in MCF-7 tumor-bearing mice; assay type: in vivo, NU/j mice; details: FIG. 34; compared to vehicle group; Compound 1 8 mg/kg, inavolisib 25 mg/kg
Protocol: as §1
Inavolisib was administered orally (PO) once per day (QD) at an amount of 25 mg/kg for the duration of the study.

For C[C@H](Nc1ccc2c(c1)OCCn1cc(N3C(=O)OC[C@H]3C(F)F)nc1-2)C(N)=O [Inavolisib, inavolisib], the “Tumor Growth Inhibition” value (MCF-7 cells; Day 25, Compound 1 8 mg/kg SC Q4D) was 74%, the “Tumor Volume on Day 25” value (MCF-7 cells; starting tumor volume 59 mm^3, Compound 1 8 mg/kg SC Q4D, vehicle 469 mm^3) was 167 mm^3 and the “Weight loss (body weight change over the study)” value [1] was “increased as compared to the vehicle group”.
